Test [1] addresses T1, Mid1 (C-terminal domain, 579-920) (Schizosaccharomyces pombe, UniProt P78953).
T1 sequence (P78953 579-920): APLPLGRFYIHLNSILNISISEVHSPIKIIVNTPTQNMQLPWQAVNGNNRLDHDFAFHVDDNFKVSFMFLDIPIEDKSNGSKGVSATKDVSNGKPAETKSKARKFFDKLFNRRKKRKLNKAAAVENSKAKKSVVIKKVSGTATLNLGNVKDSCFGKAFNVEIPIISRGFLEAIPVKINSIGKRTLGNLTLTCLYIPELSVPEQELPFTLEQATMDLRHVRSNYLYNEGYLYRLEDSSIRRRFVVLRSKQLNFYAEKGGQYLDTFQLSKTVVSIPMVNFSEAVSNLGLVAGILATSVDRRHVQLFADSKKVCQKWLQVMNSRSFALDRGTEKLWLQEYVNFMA
Put plainly: SPR, L1 chip, liposomes. The class given is binding. The following applies: PI(4,5)P2 vesicles; dimeric Mid1; given as 'up to'; room temperature. (In general: SPR reads the build-up and loss of mass on a sensor chip optically.)

For test [2], the target named is AHD-PH + RhoA* (Homo sapiens, UniProt Q9NQW6). Put plainly: SPR, L1 chip, liposomes. Type of test: binding. The following applies: PI(4,5)P2 vesicles; with lipid-modified RhoA; room temperature.
Test [3] deals with T2, AHD (anillin-homology domain of anillin, 712-981) (Homo sapiens, UniProt Q9NQW6).
T2 sequence (Q9NQW6 712-981): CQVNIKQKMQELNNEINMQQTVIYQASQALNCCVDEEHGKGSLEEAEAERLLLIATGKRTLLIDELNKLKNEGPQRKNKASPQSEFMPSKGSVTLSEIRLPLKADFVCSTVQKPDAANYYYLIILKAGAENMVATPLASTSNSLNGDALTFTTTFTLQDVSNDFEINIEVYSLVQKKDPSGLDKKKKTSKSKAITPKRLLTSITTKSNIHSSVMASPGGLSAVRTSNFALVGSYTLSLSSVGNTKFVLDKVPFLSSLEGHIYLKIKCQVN
Description: SPR, L1 chip, liposomes. The class given is binding. The following applies: PI(4,5)P2 vesicles; room temperature.

Test [4] addresses RhoA(181)-Q63L (UniProt P61586 1-181, Q63L). Put plainly: ITC.

Chain of AHD-PH + RhoA* (Q9NQW6 712-1124): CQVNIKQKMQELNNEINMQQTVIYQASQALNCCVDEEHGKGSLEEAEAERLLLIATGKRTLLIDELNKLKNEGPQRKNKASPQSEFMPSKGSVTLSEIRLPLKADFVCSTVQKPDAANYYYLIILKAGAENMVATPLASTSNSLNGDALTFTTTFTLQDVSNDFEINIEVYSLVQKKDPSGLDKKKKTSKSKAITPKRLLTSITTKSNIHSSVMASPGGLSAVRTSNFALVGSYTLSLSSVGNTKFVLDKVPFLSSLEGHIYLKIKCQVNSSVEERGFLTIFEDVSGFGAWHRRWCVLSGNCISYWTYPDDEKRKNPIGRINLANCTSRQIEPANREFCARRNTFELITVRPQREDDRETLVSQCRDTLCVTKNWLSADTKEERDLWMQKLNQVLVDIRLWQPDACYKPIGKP
Chain of AHD-PH + RhoA* (P61586 1-190 partner): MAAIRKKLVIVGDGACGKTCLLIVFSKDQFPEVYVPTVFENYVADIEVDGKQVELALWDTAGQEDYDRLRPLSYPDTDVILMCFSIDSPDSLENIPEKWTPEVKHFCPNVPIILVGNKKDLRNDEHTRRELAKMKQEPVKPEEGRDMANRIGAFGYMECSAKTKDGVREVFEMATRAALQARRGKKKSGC
Chain of RhoA(181)-Q63L (P61586 1-181 Q63L): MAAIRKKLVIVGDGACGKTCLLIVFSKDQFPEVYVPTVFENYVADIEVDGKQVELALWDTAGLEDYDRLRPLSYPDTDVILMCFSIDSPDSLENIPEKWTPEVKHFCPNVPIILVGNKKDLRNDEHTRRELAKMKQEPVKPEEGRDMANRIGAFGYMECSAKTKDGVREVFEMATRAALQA

In the case of PI(4,5)P2, the Kd in test [1] is 120 nM; in test [2], around 280 nM; in test [3], around 14000 nM.

B1: anillin-homology domain (AHD) of human anillin (712–981) (domain or fragment, UniProt Q9NQW6 712-981, looked up)
chain: CQVNIKQKMQELNNEINMQQTVIYQASQALNCCVDEEHGKGSLEEAEAERLLLIATGKRTLLIDELNKLKNEGPQRKNKASPQSEFMPSKGSVTLSEIRLPLKADFVCSTVQKPDAANYYYLIILKAGAENMVATPLASTSNSLNGDALTFTTTFTLQDVSNDFEINIEVYSLVQKKDPSGLDKKKKTSKSKAITPKRLLTSITTKSNIHSSVMASPGGLSAVRTSNFALVGSYTLSLSSVGNTKFVLDKVPFLSSLEGHIYLKIKCQVN
As to B1, in test [4], the dH is 3.97 kcal/mol.

In general, Kd refers to the free concentration of one partner at which half of the binding sites on the other are occupied at equilibrium, for simple one-to-one binding.

(Values after PMC4449299 (Developmental cell, 2015).)
